Source: patent EP0121972A2, “N-aryl-alpha-amino-carboxamides” (JANSSEN PHARMACEUTICA N.V., priority 1983, dated 1984)
Where a name gives a salt, the structure may show the parent alone.

Test system: multifocal ventricular arrhythmia
Assay: Antiarrhythmic effect in dogs with ventricular arrhythmia after coronary artery ligation
Type: in vivo
Settings: given intravenously; for minimal effective dose: Canis lupus familiaris, iv, lowest effective dose normalizing the cardial rhythm, about 16 hours after ligation of the anterior descendent branch of the left coronary artery, under neuroleptanalgesia, read-out: Antiarrhythmic effects in dogs LED in mg/kg body weight; for Antiarrhythmic effects in dogs duration: duration of action at the lowest effective dose, coronary-ligated dogs
Procedure: The compounds of formula (I) and their pharmaceutically acceptable acid addition salts and possible stereochemically isomeric forms thereof show excellent antiarrhythmic properties and as such they are useful in the normalization of irregular cardial rhythms. The antiarrhythmic effect of the compounds of this invention is clearly illustrated in the following experiment in dogs. The test was carried out under neuroleptanalgesia (1 ml per 10 kg body weight of fentanyl (0.4 mg/ml) and droperidol (20 mg/ml)).
The test compounds were given intravenously after a control period of 30 minutes.

SMILES | minimal effective dose [mg/kg] | Antiarrhythmic effects in dogs duration [min]
CCN(CC)C1(C(=O)Nc2c(C)cccc2C)CCN(C2CCCCC2)CC1 [compound 141] | 0.16 | 40
Cc1cccc(C)c1NC(=O)C1(N(C)C)CCN(C2CCCC2)CC1 [compound 130, l-cyclopentyl-4-(dimethylamino)-N-(2,6-dimethylphenyl)-4-piperidinecarboxamide] | 0.16 | 65
CCN(CC)CCCC(C)N1CCC(C(=O)Nc2c(C)cccc2C)(N(C)C)CC1 (stereo not drawn) [compound 146] | 1.25 | 45
Cc1cccc(C)c1NC(=O)C1(N(C)C)CCNCC1 [compound 71, 4-(dimethylamino)-N-(2,6-dimethylphenyl)-4-piperidinecarboxamide] | 1.25 | 240
CCN(CC)C1(C(=O)Nc2c(C)cccc2C)CCN(C2CCCC2)CC1 [compound 54, 1-cyclopentyl-4-(diethylamino)-N-(2,6-dimethylphenyl)-4-piperidinecarboxamide] | 0.16 | 240
Cc1cccc(C)c1NC(=O)C1(N(C)C)CCN([C@@H]2CCC[C@H]2NCc2ccccc2)CC1 (relative stereo) [compound 129, trans-4-(dimethylamino)-N-(2,6-dimethylphenyl)-l-[2-[(phenylmethyl)amino]cyclopentyl]-4-piperidinecarboxamide] | 0.08 | –
CCN(CC)C1(C(=O)Nc2cc(Cl)ccc2C)CCN(C2CCCC2)CC1 [compound 166, N-(5-chloro-2-methylphenyl)-l-cyclopentyl-4-(diethylamino)-4-piperidinecarboxamide dihydrochloride hemihydrate] | 0.63 | 200
Cc1cccc(C)c1NC(=O)C1(N(C)C)CCN([C@H]2CC[C@@H](O)C[C@@H]2O)CC1 [compound 202, (+)-[1-(1α,2β,4α)]-1-(2,4-dihydroxycyclohexyl)-4-(dimethylamino)-N-(2,6-dimethylphenyl)-4-piperidinecarboxamide] | 0.31 | 5
